The structures appear in SMILES notation. pIC50, pKd: −log10 of the molar value. A value given as a limit tells only on which side of the number the result lay.

In assay [1] the target is T1, PRMT5/MEP50 complex (Homo sapiens (Human), UniProt O14744). In words: PRMT5:MEP50 HotSpot Assay. The format is biochemical. The conditions noted are these: read-out: IC50 + 2 μM MTA, full-length histone H2A, presence of 2 μM MTA. The protocol:
The assay uses recombinant full-length histone H2A as the PRMT5 substrate. Enzymatic transfer of the tritiated methyl group from S-adenosyl-L-[methyl-3H]methionine to the histone H2A protein generated a radiolabeled histone […] in a scintillation counter to determine the activity of PRMT5 enzyme in the presence and absence of compound. […] Briefly, compounds of the present invention were solubilized in 100% DMSO at a highest concentration of 10 mM. […] Control samples lacking compound, PRMT5/MEP50 complex or various reaction components also were prepared and processed in parallel with compound test samples. SAH was used as a positive control for assay validation. To measure PRMT5 inhibitory activity. 1 nM PRMT5/MEP50 complex (Reaction Biology Corporation) was preincubated with test compound in assay buffer containing 5 μM full-length histone H2A for 20 min at room temperature. The enzymatic reaction was initiated by adding 1 μM tritiated S-adenosyl methionine (final concentration) and the reaction was allowed to proceed for 60 min. The reaction was stopped and transferred to filter paper for detection. The amount of tritiated H2A in each sample was determined using a scintillation counter.

Assay [2] addresses recombinant human dual expressed Avi PRMT5/His-MEP50 protein (Homo sapiens (Human), UniProt O14744). The assay is described as follows: HTRF binding assay in presence of MTA. The following applies: 30 μM MTA. In short, it runs like this: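 HTRF tracer-displacement binding using human Avi-PRMT5 (2-637)/His-MEP50 (2-342), baculovirus-expressed, with 30 μM MTA and 5 nM in-house tracer in 25 mM ADA pH 7.2, 1 mM TCEP, 50 mM NaCl, 0.002% Tween. Overnight at 2-8° C, then 0.5 nM anti-His-Tb 1 hr RT; 665/620 ratio ×10000.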

The target of assay [3] is PRMT5•MTA (biotinylated PRMT5-MEP50) (Homo sapiens (Human), UniProt O14744). In words: SPR binding assay, MTA running buffer. The following applies: 20 μM MTA running buffer. The protocol:
(§1) SPR screening was performed in MTA running buffer (25 mM Bicine pH 7.6, 100 mM NaCl, 1 mM TCEP, 20 μM MTA, 0.05% Tween-20 and 2% DMSO). The biotinylated PRMT5-MEP50 surface was equilibrated with MTA running buffer for 12 hours prior to the start. […] Subsequently, compound titration was repeated in SAM-running buffer (25 mM Bicine pH 7.6, 100 mM NaCl, 1 mM TCEP, 20 μM SAM, 0.05% Tween-20, and 2% DMSO). […] After double referencing, the steady-state response was extracted for each fragment concentration and was fit to the Langmuir isotherm equation to determine the equilibrium dissociation constant (KD).
(In general: In SPR one partner is held on a chip, and binding of the other changes the refractive index at the surface.)

Assay [4] deals with PRMT5•SAM (biotinylated PRMT5-MEP50) (Homo sapiens (Human), UniProt O14744). In words: SPR binding assay, SAM running buffer. The conditions noted are these: 20 μM SAM running buffer. The protocol:
as §1

The target in assay [5] is T1, PRMT5/MEP50 complex. In words: PRMT5:MEP50 FlashPlate Assay. The format is biochemical. The protocol: The PRMT5 inhibitory activity of compounds of the present invention was determined using a PRMT5:MEP50 FlashPlate Assay (Reaction Biology Corporation).
The assay uses purified human, PRMT5 enzyme to convert S-adenosyl-L-[methyl-^3H]methionine plus histone H4 L-arginine to S-adenosyl-L-homocysteine plus histone H4 [methyl-^3H]-L-arginine. The assay was carried out using Streptavidin-coated FlashPlates (Perkin Elmer), which contained a scintillant embedded in the plastic of the plate. The histone H4 peptide substrate was conjugated with biotin, which binds to the streptavidin-coated well of the plate, placing the H4 peptide in close proximity to the side well and the scintillant. The transfer of the tritiated methyl group from S-adenosyl-L-[methyl-^3H]methionine to the bound histone H4 peptide generated a radiolabeled histone H4, which was quantitated by measuring in a scintillation counter to determine the activity of PRMT5 enzyme in the presence and absence of compound. […] Briefly, compounds of the present invention were solubilized in 100% DMSO at a highest concentration of 10 mM. For IC, determinations, the initial starting concentration for the serial dilutions of each compound was 50 μM. Control samples lacking compound, PRMT5/MEP50 complex or various reaction components also were prepared and processed in parallel with compound test samples. SAH was used as a positive control for assay validation. To measure PRMT5 inhibitory activity, 3 nM PRMT5/MEP50 complex (Reaction Biology Corporation) was preincubated with test compound in assay buffer containing 40 nM histone H4 peptide (amino acids 1-15)-Biotin conjugate for 20 min at room temperature. The enzymatic reaction was initiated by adding 1 μM tritiated S-adenosyl methionine (final concentration) and the reaction is allowed to proceed for 20 min. The reaction was stopped and the amount of bound, tritiated H4 peptide in each sample was determined using a scintillation counter. The IC50 value for each compound was calculated from each 10-point dose-response curve for samples plus and minus MTA using GraphPad Prism software and the results for exemplary compounds of Formula (I) is shown in Table 9a.

The mark [6] stands for this setting: histone H4 peptide, absence of MTA, read-out: IC50.
The mark [7] stands for this setting: read-out: IC50 + 2 μM MTA, histone H4 peptide, presence of 2 μM MTA.

recombinant human dual expressed Avi PRMT5/His-MEP50 protein, sequence (O14744 2-637): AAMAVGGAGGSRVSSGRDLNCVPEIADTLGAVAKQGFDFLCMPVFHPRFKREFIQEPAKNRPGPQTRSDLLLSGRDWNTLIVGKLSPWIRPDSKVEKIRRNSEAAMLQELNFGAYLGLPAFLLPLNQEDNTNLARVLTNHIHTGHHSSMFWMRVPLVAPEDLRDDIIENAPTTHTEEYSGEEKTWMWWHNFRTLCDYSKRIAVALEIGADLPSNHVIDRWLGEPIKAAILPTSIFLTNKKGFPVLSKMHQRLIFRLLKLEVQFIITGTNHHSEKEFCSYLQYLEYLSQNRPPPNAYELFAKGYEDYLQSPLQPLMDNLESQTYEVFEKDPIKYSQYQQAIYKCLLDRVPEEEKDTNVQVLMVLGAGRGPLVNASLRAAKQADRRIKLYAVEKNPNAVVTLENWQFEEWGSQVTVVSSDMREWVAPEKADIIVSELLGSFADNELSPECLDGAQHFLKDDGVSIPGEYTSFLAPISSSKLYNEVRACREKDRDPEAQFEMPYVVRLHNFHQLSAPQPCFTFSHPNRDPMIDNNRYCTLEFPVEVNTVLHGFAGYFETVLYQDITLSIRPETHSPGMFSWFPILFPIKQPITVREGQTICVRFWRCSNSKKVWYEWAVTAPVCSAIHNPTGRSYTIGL
recombinant human dual expressed Avi PRMT5/His-MEP50 protein, sequence (Q9BQA1 2-342 partner): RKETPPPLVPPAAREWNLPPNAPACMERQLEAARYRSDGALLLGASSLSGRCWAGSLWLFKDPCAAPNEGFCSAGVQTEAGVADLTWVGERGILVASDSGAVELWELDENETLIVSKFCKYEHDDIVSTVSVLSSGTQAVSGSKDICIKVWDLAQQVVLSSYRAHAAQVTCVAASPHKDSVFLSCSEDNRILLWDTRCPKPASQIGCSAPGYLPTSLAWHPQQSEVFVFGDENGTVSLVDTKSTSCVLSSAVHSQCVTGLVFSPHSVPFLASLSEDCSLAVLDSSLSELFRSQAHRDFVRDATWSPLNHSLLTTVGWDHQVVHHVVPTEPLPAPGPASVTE
T1 sequence (O14744 whole entry): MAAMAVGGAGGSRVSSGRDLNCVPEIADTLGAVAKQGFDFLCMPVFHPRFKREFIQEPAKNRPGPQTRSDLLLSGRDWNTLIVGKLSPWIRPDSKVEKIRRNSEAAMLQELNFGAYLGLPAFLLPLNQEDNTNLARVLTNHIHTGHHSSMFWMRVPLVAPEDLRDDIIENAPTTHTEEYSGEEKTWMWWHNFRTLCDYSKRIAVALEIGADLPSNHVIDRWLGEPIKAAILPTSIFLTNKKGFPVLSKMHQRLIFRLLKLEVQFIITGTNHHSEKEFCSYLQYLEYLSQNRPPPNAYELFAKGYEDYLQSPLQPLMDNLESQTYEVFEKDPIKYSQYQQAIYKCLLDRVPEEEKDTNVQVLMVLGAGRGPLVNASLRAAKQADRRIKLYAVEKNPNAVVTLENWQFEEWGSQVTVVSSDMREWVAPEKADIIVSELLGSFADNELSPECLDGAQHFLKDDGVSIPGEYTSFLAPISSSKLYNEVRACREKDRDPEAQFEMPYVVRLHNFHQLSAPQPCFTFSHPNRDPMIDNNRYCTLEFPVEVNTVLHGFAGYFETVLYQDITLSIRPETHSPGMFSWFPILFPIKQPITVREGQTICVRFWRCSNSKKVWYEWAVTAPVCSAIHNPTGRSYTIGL
T1 sequence (Q9BQA1 whole entry partner): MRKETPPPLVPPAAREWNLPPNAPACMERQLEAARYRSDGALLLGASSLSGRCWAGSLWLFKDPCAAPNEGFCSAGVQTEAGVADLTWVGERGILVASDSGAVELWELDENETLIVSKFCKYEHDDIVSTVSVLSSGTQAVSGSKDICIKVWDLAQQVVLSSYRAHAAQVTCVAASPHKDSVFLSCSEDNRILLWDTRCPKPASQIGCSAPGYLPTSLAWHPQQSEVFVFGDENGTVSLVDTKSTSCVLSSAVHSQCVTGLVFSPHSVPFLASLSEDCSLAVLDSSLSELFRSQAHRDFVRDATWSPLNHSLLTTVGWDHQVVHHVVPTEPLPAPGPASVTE
PRMT5•MTA (biotinylated PRMT5-MEP50), sequence (O14744 whole entry, the tested form may be a part): as the sequence (O14744 whole entry) above
PRMT5•MTA (biotinylated PRMT5-MEP50), sequence (Q9BQA1 whole entry partner, the tested form may be a part): as the sequence (Q9BQA1 whole entry partner) above
PRMT5•SAM (biotinylated PRMT5-MEP50), sequence (O14744 whole entry): as the sequence (O14744 whole entry) above
PRMT5•SAM (biotinylated PRMT5-MEP50), sequence (Q9BQA1 whole entry partner): as the sequence (Q9BQA1 whole entry partner) above

The term pIC50 denotes −log10 of the IC50, conventionally taken in molar units. With `Cc1cc2ncc(C(=O)N(Cc3ccc(Br)cn3)[C@H](C)c3ncccn3)cc2nc1N` [Example 10-8, (R)-6-amino-N-((5-bromopyridin-2-yl)methyl)-7-methyl-N-(1-(pyrimidin-2-yl)ethyl)-1,5-naphthyridine-3-carboxamide], the pIC50 on PRMT5/MEP50 complex [1] was 7.22.
The pKd is the Kd on a negative log10 scale, so that one unit is a factor of ten. Low readings indicate a high Kd, high ones a low Kd. Regarding `CC(=O)N(Cc1cc2nc(N)c(C)cc2[nH]1)c1ccc2ccccc2c1C#N` [Example 14-2, N-[(5-amino-6-methyl-1H-pyrrolo[3,2-b]pyridin-2-yl)methyl]-N—(I-cyano-2-naphthyl)acetamide], the pIC50 in assay [2] is 8.70; at PRMT5/MEP50 complex [5] (setting [6]), 6.10; on PRMT5/MEP50 complex [5] (setting [7]), 8.76; at PRMT5/MEP50 complex [1], 6.26. For the same compound, the negative logarithm of the Kd (pKd) in assay [3] and in assay [4] was 9.00 throughout.
Turning to `CC(=O)N(Cc1cnc2c(C)cc(N)nc2c1)c1ccc2ccccc2c1C#N` [Example 7-5, N-[(6-amino-8-methyl-1,5-naphthyridin-3-yl)methyl]-N-(1-cyano-2-naphthyl)acetamide], the pIC50 was 8.52 in assay [2], 5.19 at PRMT5/MEP50 complex [5] (setting [6]), 7.69 on PRMT5/MEP50 complex [5] (setting [7]) and 5.87 on PRMT5/MEP50 complex [1]. In addition, the pKd in assay [3] and in assay [4] was 8.70 throughout.
Regarding `Cc1cc2ncc(C(=O)N(Cc3ccc(C(F)(F)F)cn3)[C@H]3CCCc4nccnc43)cc2nc1N` [Example 10-5, (S)-6-amino-7-methyl-N-(5,6,7,8-tetrahydroquinoxalin-5-yl)-N-((5-(trifluoromethyl)pyridin-2-yl)methyl)-1,5-naphthyridine-3-carboxamide], the negative-log IC50 (pIC50) on PRMT5/MEP50 complex [1] was 4.83.
Still for that read-out and setting: then `Cc1cc2[nH]c(C(=O)N(Cc3ccc(C(F)(F)F)cn3)C3CCCc4nccnc43)cc2nc1N` (stereo in doubt) [Example 10-4, (R)-5-amino-6-methyl-N-(5,6,7,8-tetrahydroquinoxalin-5-yl)-N-((5-(trifluoromethyl)pyridin-2-yl)methyl)-1H-pyrrolo[3,2-b]pyridine-2-carboxamide], with 6.42; and `Cc1cc2ncc(C(=O)N(Cc3ccc(C(F)(F)F)cn3)[C@@H]3CCCc4nccnc43)cc2nc1N` [Example 10-6, (R)-6-amino-7-methyl-N-(5,6,7,8-tetrahydroquinoxalin-5-yl)-N-((5-(trifluoromethyl)pyridin-2-yl)methyl)-1,5-naphthyridine-3-carboxamide], with 6.03.
On to `Cc1cc2[nH]c(CN3C(=O)c4ccccc4C3=O)cc2nc1N` [Example 14-1, 2-((5-amino-6-methyl-1H-pyrrolo[3,2-b]pyridin-2-yl)methyl)isoindoline-1,3-dione], for which the pIC50 in assay [2] was 8.15; on PRMT5/MEP50 complex [5] (setting [6]), 5.00; on PRMT5/MEP50 complex [5] (setting [7]), 7.92; on PRMT5/MEP50 complex [1] it was 6.20. The pKd in assay [3] was 9.00; in assay [4], 8.22.
`Nc1nc2cc(NC(=O)c3ccccc3)[nH]c2cc1Br` [Example 12-1, N-(5-amino-6-bromo-1H-pyrrolo [3,2-b]pyridin-2-yl)benzamide]: the pIC50 is 5.85 in assay [2], below 4.00 at PRMT5/MEP50 complex [5] (setting [6]) and below 4.00 at PRMT5/MEP50 complex [5] (setting [7]). Moreover, the pKd was 5.60 in assay [3] and 5.20 in assay [4].
As for `Cc1cc2[nH]c(C(C#N)N3C(=O)c4ccccc4C3=O)cc2nc1N` (stereo not drawn) [Example 14-5, 2-(5-amino-6-methyl-1H-pyrrolo[3,2-b]pyridin-2-yl)-2-(1,3-dioxoisoindolin-2-yl)acetonitrile], the negative logarithm of the IC50 (pIC50) is 7.43 in assay [2], 3.61 at PRMT5/MEP50 complex [5] (setting [6]) and 5.37 on PRMT5/MEP50 complex [5] (setting [7]). Also, the pKd was 6.69 in assay [3] and 6.14 in assay [4].
Take `Cc1cc(N)nc2cc(C(=O)N(Cc3ccc(Br)cn3)[C@@H](C)c3ncccn3)cnc12` [Example 10-11, 6-amino-N-[(5-bromo-2-pyridyl)methyl]-8-methyl-N-[(1S)-1-pyrimidin-2-ylethyl]-1,5-naphthyridine-3-carboxamide]: the negative-log IC50 (pIC50) on PRMT5/MEP50 complex [1] is 4.98.
For the compound `Cc1cc(N)nc2cc(CNC(=O)c3cc(O)ncn3)cnc12` [Example 7-3, N-[(6-amino-8-methyl-1,5-naphthyridin-3-yl)methyl]-6-hydroxy-pyrimidine-4-carboxamide], the figures for the pIC50 (in assay [2]; on PRMT5/MEP50 complex [5] (setting [6]); at PRMT5/MEP50 complex [5] (setting [7])) were 5.98, below 4.00 and 4.22, respectively. The results for the pKd in assay [3] and in assay [4] were 6.17 and 4.90, respectively.
The corresponding values for `Nc1nc2cc(NC(=O)c3ccccc3F)[nH]c2cc1Br` [Example 12-4, N-(5-amino-6-bromo-1H-pyrrolo[3,2-b]pyridin-2-yl)-2-fluoro-benzamide] are 5.79, 4.00, 4.31, 5.72 and 5.31.
In the same order, the values of `Cc1cc(N)nc2ccc(-c3ccccc3F)nc12` [Example 4-7, 6-(2-fluorophenyl)-4-methyl-1,5-naphthyridin-2-amine] are 4.99, below 3.52, below 3.52, 4.50 and 4.09.
For `Cc1cc2[nH]c(C(=O)N(Cc3ccc(C(F)(F)F)cn3)[C@H]3CCCc4nccnc43)cc2nc1N` [Example 10-3, (S)-5-amino-6-methyl-N-(5,6,7,8-tetrahydroquinoxalin-5-yl)-N-((5-(trifluoromethyl)pyridin-2-yl)methyl)-1H-pyrrolo[3,2-b]pyridine-2-carboxamide], the negative logarithm of the IC50 (pIC50) on PRMT5/MEP50 complex [1] was 4.99.
As to `CC(=O)NCc1cc2nc(N)c(C)cc2[nH]1` [Example 14-3, N-((5-amino-6-methyl-1H-pyrrolo[3,2-b]pyridin-2-yl)methyl)acetamide], the negative-log IC50 (pIC50) in assay [2] was 6.99; on PRMT5/MEP50 complex [5] (setting [6]), 3.57; on PRMT5/MEP50 complex [5] (setting [7]) it was 6.86. For the same compound, the pKd in assay [3] was 7.92; in assay [4], 7.42.
In the same order, the values of `Cc1cc2[nH]c(-n3cncn3)cc2nc1N` [Example 13-1, 6-methyl-2-(1,2,4-triazol-1-yl)-1H-pyrrolo[3,2-b]pyridin-5-amine] are 5.89, below 3.52, 3.75, 6.29 and 5.93.
Take `Cc1cc2ncc(C(=O)N(Cc3ccc(Br)cn3)[C@@H](C)c3ncccn3)cc2nc1N` [Example 10-7, (S)-6-amino-N-((5-bromopyridin-2-yl)methyl)-7-methyl-N-(1-(pyrimidin-2-yl)ethyl)-1,5-naphthyridine-3-carboxamide]: the pIC50 on PRMT5/MEP50 complex [1] was 4.79.

Source of the values: US20240368153A1, “Aminopyridine-based MTA-Cooperative PRMT5 Inhibitors” (Mirati Therapeutics, Inc., priority 2021, published 2024).
